According to patent US9920074B2 (ACEA BIOSCIENCES INC., priority 2013, dated 2018):

What was measured:
[1] = target: T1, Btk (Tyr223) phosphorylation in Ramos cells (Homo sapiens, UniProt Q06187); experiment: Western blotting assay for Btk (Example 73); format: cell-based; conditions: 45 min, 6 μg/mL anti-IgM, read-out: Btk Inhibition
T1 construct: endogenous in cells; host or cells: Ramos cells (ATCC)
Protocol: (§1) All cell lines were obtained from the American Type Culture Collection and were maintained at 37° C. with 5% CO2. Ramos cell line was maintained in media supplemented with 10% fetal bovine serum, penicillin (100 units/mL) and streptomycin (100 μg/mL). NK-92 cell line was maintained in media supplemented with 10% fetal bovine serum and 10% horse serum, penicillin (100 units/mL) and streptomycin (100 μg/mL), IL-2 10 ng/mL. Goat F(ab′)2 Anti-Human IgM-UNLB was obtained from SouthernBiotech. IL-2 was obtained from Peprotech.
Ramos cells were treated with compounds at indicated doses for 45 min at room temperature, followed by stimulation of 6 μg/mL of anti-IgM for 30 min, and then lysed. Western blots were performed on the cell lysate using Phospho-Btk (Tyr223), Phospho-Btk (Tyr551), Btk, Phospho-PLCγ2 (Tyr1217), PLCγ2, Phospho-p44/42 MAPK (Erk1/2) (Thr202/Tyr204) and p44/42 MAPK (Erk1/2) antibodies (Cell Signaling Technology). The density of blotting band was acquired using ImageJ software, and the IC50 of Btk (Tyr223) phosphorylation was fitted using a non-linear regression model by GraphPad Prism.

[2] = tested on: Stat5 phosphorylation in NK-92 cells; experiment: Western blotting assay for Stat5; format: cell-based; conditions: NK92, 1 hour, IL-2 stimulation, read-out: Stat5 inhibition
Protocol: as §1
NK-92 cells were treated with compounds at the dosed indicated for 1 hour in incubator, followed by the IL-2 stimulation for 15 minutes. Cells were then collected and lysed to prepare the cellular extraction. Western blots were performed on cell lysate using Phospho-Jak3, Jak3, Phospho-Stat5, Stat5 antibodies (Cell Signaling Technology). The intensity of blotting band was acquired using Image Lab (Bio-Rad) software, and the IC50 of target was generated with GraphPad Prism.

T1 sequence (Q06187 whole entry): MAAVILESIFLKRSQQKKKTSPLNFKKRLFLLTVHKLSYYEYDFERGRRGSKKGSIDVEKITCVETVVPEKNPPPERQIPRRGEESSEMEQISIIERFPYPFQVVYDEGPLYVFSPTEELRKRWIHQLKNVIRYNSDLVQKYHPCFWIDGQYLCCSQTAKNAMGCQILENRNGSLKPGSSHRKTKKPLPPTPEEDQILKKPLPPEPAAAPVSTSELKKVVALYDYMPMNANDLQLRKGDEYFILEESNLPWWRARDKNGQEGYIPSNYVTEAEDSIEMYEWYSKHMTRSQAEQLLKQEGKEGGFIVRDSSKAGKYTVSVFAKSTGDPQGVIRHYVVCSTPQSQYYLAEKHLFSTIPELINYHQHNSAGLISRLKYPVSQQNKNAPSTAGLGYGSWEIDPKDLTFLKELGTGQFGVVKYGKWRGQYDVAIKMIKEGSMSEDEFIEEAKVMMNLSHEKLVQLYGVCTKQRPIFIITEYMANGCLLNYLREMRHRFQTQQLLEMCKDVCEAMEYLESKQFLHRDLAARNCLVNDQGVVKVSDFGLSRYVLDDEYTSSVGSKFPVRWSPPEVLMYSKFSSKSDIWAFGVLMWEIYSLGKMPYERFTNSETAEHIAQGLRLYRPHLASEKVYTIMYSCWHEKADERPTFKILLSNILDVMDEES

SMILES	IC50 [1] [nM]	IC50 [2] [nM]
C=CC(=O)Nc1cccc(Oc2nc(Nc3ccc(N(C)[C@H]4CCN(CCOC)C4)cc3OC)ncc2OC)c1 [Compound I-55a, (S)—N-(3-(5-methoxy-2-(2-methoxy-4-((1-(2-methoxyethyl)pyrrolidin-3-yl)(methyl)amino)phenylamino)pyrimidin-4-yloxy)phenyl)acrylamide]	≥ 100	
C=CC(=O)Nc1cccc(Oc2nc(Nc3ccc4c(ccn4CCOC)c3)ncc2OC)c1 [Compound I-45a, N-(3-(5-methoxy-2-(1-(2-methoxyethyl)-1H-indol-5-ylamino)pyrimidin-4-yloxy)phenyl)acrylamide]	10 to 100	200 to 400
C=CC(=O)Nc1cccc(Oc2nc(Nc3ccc(N[C@@H]4CCN(CCF)C4)cc3)ncc2F)c1 [Compound I-19, (R)—N-(3-(5-fluoro-2-(4-(1-(2-fluoroethyl)pyrrolidin-3-ylamino)phenylamino)pyrimidin-4-yloxy)phenyl)acrylamide]	≤ 10	
C=CC(=O)Nc1cccc(Oc2nc(Nc3ccc4c(c3)CCN4C(C)=O)ncc2OC)c1 [Compound I-56a, N-(3-(2-(1-acetylindolin-5-ylamino)-5-methoxypyrimidin-4-yloxy)phenyl)acrylamide]	≤ 10	200 to 400
C=CC(=O)Nc1cccc(Nc2nc(Nc3cccc4c3CCN4CCOC)ncc2OC)c1 [Compound I-29a, N-(3-(5-methoxy-2-(1-(2-methoxyethyl)indolin-4-ylamino)pyrimidin-4-ylamino)phenyl)acrylamide]	≥ 100	
C=CC(=O)Nc1cccc(Oc2nc(Nc3ccc(N(C)[C@H]4CCN(CCF)C4)cc3)nc3[nH]ccc23)c1 [Compound I-26a, (S)—N-(3-(2-(4-((1-(2-fluoroethyl)pyrrolidin-3-yl)(methyl)amino)phenylamino)-7H-pyrrolo[2,3-d]pyrimidin-4-yloxy)phenyl)acrylamide]	10 to 100	
C=CC(=O)Nc1cccc(Oc2nc(Nc3ccc(N4CCN(CCOC)CC4)c(F)c3)nc3[nH]ccc23)c1 [Compound I-48a, N-(3-(2-(3-fluoro-4-(4-(2-methoxyethyl)piperazin-1-yl)phenylamino)-7H-pyrrolo[2,3-d]pyrimidin-4-yloxy)phenyl)acrylamide]	≤ 10	200 to 400
C=CC(=O)Nc1cccc(Oc2nc(Nc3ccc4c(c3)CN(CCOC)C4)ncc2OC)c1 [Compound I-50a, N-(3-(5-methoxy-2-(2-(2-methoxyethyl)isoindolin-5-ylamino)pyrimidin-4-yloxy)phenyl)acrylamide]	10 to 100	≥ 400
C=CC(=O)Nc1cccc(Oc2nc(Nc3ccc(N(CCC)CCOC)cc3)ncc2OC)c1 [Compound I-38a, N-(3-(5-methoxy-2-(4-((2-methoxyethyl)(propyl)amino)phenylamino)pyrimidin-4-yloxy)phenyl)acrylamide]	10 to 100	≥ 400
C=CC(=O)Nc1cccc(Oc2nc(Nc3ccc(N(C)[C@@H]4CCN(C(C)=O)C4)cc3)ncc2OC)c1 [Compound I-72a, (R)—N-(3-(2-(4-((1-acetylpyrrolidin-3-yl)(methyl)amino)phenylamino)-5-methoxypyrimidin-4-yloxy)phenyl)acrylamide]	≤ 10	
C=CC(=O)Nc1cccc(Oc2nc(Nc3ccc(N4CCN(CCOC)CC4)cc3)nc3[nH]cnc23)c1 [Compound I-65a, N-(3-(2-(4-(4-(2-methoxyethyl)piperazin-1-yl)phenylamino)-9H-purin-6-yloxy)phenyl)acrylamide]	≤ 10	
C=CC(=O)Nc1cccc(Oc2nc(Nc3ccc(OCCOC)c(F)c3)nc3[nH]ccc23)c1 [Compound I-24a, N-(3-(2-(3-fluoro-4-(2-methoxyethoxy)phenylamino)-7H-pyrrolo[2,3-d]pyrimidin-4-yloxy)phenyl)acrylamide]	10 to 100	
C=CC(=O)Nc1cccc(Oc2nc(Nc3ccc(N[C@H]4CCN(S(C)(=O)=O)C4)cc3)nc3[nH]ccc23)c1 [Compound I-62a, (S)—N-(3-(2-(4-(1-(methylsulfonyl)pyrrolidin-3-ylamino)phenylamino)-7H-pyrrolo[2,3-d]pyrimidin-4-yloxy)phenyl)acrylamide]	≤ 10	
C=CC(=O)Nc1cccc(Oc2nc(Nc3ccc4c(c3)CS(=O)(=O)N4)ncc2OC)c1 [Compound I-70a, N-(3-((2-((2,2-dioxido-1,3-dihydrobenzo[c]isothiazol-5-yl)amino)-5-methoxypyrimidin-4-yl)oxy)phenyl)acrylamide]	10 to 100	
C=CC(=O)Nc1cccc(Oc2nc(Nc3ccc4c(c3)CCN4S(C)(=O)=O)ncc2OC)c1 [Compound I-59a, N-(3-(5-methoxy-2-(1-(methylsulfonyl)indolin-5-ylamino)pyrimidin-4-yloxy)phenyl)acrylamide]	≤ 10	
C=CC(=O)Nc1cccc(Oc2nc(Nc3ccc(N(C)[C@H]4CCN(S(C)(=O)=O)C4)cc3)ncc2OC)c1 [Compound I-60a, (S)—N-(3-(5-methoxy-2-(4-(methyl(1-(methylsulfonyl)pyrrolidin-3-yl)amino)phenylamino)pyrimidin-4-yloxy)phenyl)acrylamide]	≤ 10	
C=CC(=O)Nc1cccc(Oc2nc(Nc3ccc(N(C)[C@H]4CCN(C(C)=O)C4)cc3)nc3[nH]ccc23)c1 [Compound I-64a, (S)—N-(3-(2-(4-((1-acetylpyrrolidin-3-yl)(methyl)amino)phenylamino)-7H-pyrrolo[2,3-d]pyrimidin-4-yloxy)phenyl)acrylamide]	≤ 10	
C=CC(=O)Nc1cccc(Oc2nc(Nc3ccc(N(C)[C@H]4CCN(S(C)(=O)=O)C4)cc3)nc3[nH]ccc23)c1 [Compound I-63a, (S)—N-(3-(2-(4-(methyl(1-(methylsulfonyl)pyrrolidin-3-yl)amino)phenylamino)-7H-pyrrolo[2,3-d]pyrimidin-4-yloxy)phenyl)acrylamide]	≤ 10	
C=CC(=O)Nc1cccc(Oc2nc(Nc3ccc(N[C@H]4CCN(CCOC)C4)cc3)nc3[nH]cnc23)c1 [Compound I-67a, (S)—N-(3-(2-(4-(1-(2-methoxyethyl)pyrrolidin-3-ylamino)phenylamino)-9H-purin-6-yloxy)phenyl)acrylamide]	10 to 100	

Other lines, results leading:

IC50 [1] [nM]	IC50 [2] [nM]	SMILES
≤ 10		C=CC(=O)Nc1cccc(Oc2nc(Nc3ccc(N[C@H]4CCN(CCF)C4)cc3)nc3[nH]ccc23)c1 [Compound I-27a, (S)—N-(3-(2-(4-(1-(2-fluoroethyl)pyrrolidin-3-ylamino)phenylamino)-7H-pyrrolo[2,3-d]pyrimidin-4-yloxy)phenyl)acrylamide]
≤ 10		C=CC(=O)Nc1cccc(Oc2nc(Nc3ccc(N[C@H]4CCN(C(C)=O)C4)cc3)nc3[nH]ccc23)c1 [Compound I-61a, (S)—N-(3-(2-(4-(1-acetylpyrrolidin-3-ylamino)phenylamino)-7H-pyrrolo[2,3-d]pyrimidin-4-yloxy)phenyl)acrylamide]
≤ 10	≥ 400	C=CC(=O)Nc1cccc(Oc2nc(Nc3ccc(N4CCN(CCS(C)(=O)=O)CC4)cc3)ncc2OC)c1 [Compound I-54a, N-(3-(5-methoxy-2-(4-(4-(2-(methylsulfonyl)ethyl)piperazin-1-yl)phenylamino)pyrimidin-4-yloxy)phenyl)acrylamide]
10 to 100	≥ 400	C=CC(=O)Nc1cccc(Oc2nc(Nc3cc(F)c(OCCOC)c(F)c3)nc3[nH]ccc23)c1 [Compound I-37a, N-(3-(2-(3,5-difluoro-4-(2-methoxyethoxy)phenylamino)-7H-pyrrolo[2,3-d]pyrimidin-4-yloxy)phenyl)acrylamide]
≤ 10		C=CC(=O)Nc1cccc(Oc2nc(Nc3ccc(N(C)[C@H]4CCN(S(C)(=O)=O)C4)cc3)nc3[nH]cnc23)c1 [Compound I-71a, (S)—N-(3-(2-(4-(methyl(1-(methylsulfonyl)pyrrolidin-3-yl)amino)phenylamino)-9H-purin-6-yloxy)phenyl)acrylamide]
≤ 10		C=CC(=O)Nc1cccc(Oc2nc(Nc3ccc(N[C@H]4CCN(C(C)=O)C4)cc3)ncc2OC)c1 [Compound I-66a, (S)—N-(3-(2-(4-((1-acetylpyrrolidin-3-yl)amino)phenylamino)-5-methoxypyrimidin-4-yloxy)phenyl)acrylamide]
10 to 100		C=CC(=O)Nc1cccc(Oc2nc(Nc3ccc(N4CCN(CCS(C)(=O)=O)CC4)cc3)nc3[nH]cnc23)c1 [Compound I-69a, N-(3-(2-(4-(4-(2-(methylsulfonyl)ethyl)piperazin-1-yl)phenylamino)-9H-purin-6-yloxy)phenyl)acrylamide]
10 to 100		C=CC(=O)Nc1cccc(Oc2nc(Nc3ccc(N4CCN(C(C)=O)CC4)cc3)nc3[nH]cnc23)c1 [Compound I-68a, N-(3-(2-(4-(4-acetylpiperazin-1-yl)phenylamino)-9H-purin-6-yloxy)phenyl)acrylamide]
10 to 100		C=CC(=O)Nc1cccc(Oc2nc(Nc3cccc4c3CCN4CCOC)ncc2OC)c1 [Compound I-28a, N-(3-(5-methoxy-2-(1-(2-methoxyethyl)indolin-4-ylamino)pyrimidin-4-yloxy)phenyl)acrylamide]
